Experimental data as given in BindingDB's records for doi:10.1016/j.ejmech.2019.05.014 (Xuzhou Medical University, 2019).

Key:
[1] = Inhibition of capsid protein in lamivudine/entecavir-resistant Hepatitis B virus harboring rtL180M/rtM204V/rt184L mutant infected in human HepG2.2.15 cells assessed as reduction in viral DNA level measured after 72 hrs by PCR analysis
[2] = Inhibition of capsid protein in Hepatitis B virus infected in human HepG2.2.15 cells assessed as reduction in viral DNA level at 4 uM supplemented with fresh medium containing compound every 2 days and measured after 6 days by RT-PCR analysis

SMILES | IC50 [1] [nM] | IC50 [2] [nM]
CCN(CC)CCOc1ccc2nc(SCc3ccccc3)n(Cc3cccs3)c(=O)c2c1 | 840 | 710
Nc1ccn([C@@H]2CS[C@H](CO)O2)c(=O)n1 [Epivir] | > 100000 | < 100
COc1ccc(C(C)=O)cc1CSc1nc2ccccc2c(=O)n1Cc1cccs1 | – | 4070
CN(C)CCOc1ccc2nc(SCc3ccccc3)n(Cc3cccs3)c(=O)c2c1 | 1900 | 1540
CCN(CC)CCOc1ccc2nc(SCc3ccccc3OC)n(Cc3cccs3)c(=O)c2c1 | – | 1930
COc1ccccc1CSc1nc2ccc(F)cc2c(=O)n1Cc1cccs1 | – | 2480
COc1ccccc1CSc1nc2ccccc2c(=O)n1Cc1cccs1 | – | 2810
